Source: patent publication US9884818B2, “Sulphamoylpyrrolamide derivatives and the use thereof as medicaments for the treatment of hepatitis B” (Janssen Sciences Ireland UC, priority 2013, dated 2018)

What was measured:
HBV [1] = test: Anti-HBV activity, HepG2.2.15 stable transfected cell line, HBV DNA from secreted virions by realtime PCR; type: cell-based; settings: HepG2.2.15 cells, 6 days of treatment, HBV DNA from secreted virions, read-out: HepG2 2.15 EC50
HepG2 cells = test: Cytotoxicity in HepG2 cells, Resazurin viability assay; settings: read-out: HepG2 4 days CC50; HepG2 cells, incubated for 4 days, Resazurin assay
HBV [2] = test: Anti-HBV activity, HepG2.117 inducibly HBV producing cell line (Tet-off), intracellular HBV DNA by realtime PCR; type: cell-based; settings: HepG2.117 cells, 3 days of treatment, intracellular HBV DNA, read-out: HepG2 117 EC50
[3] = Cytotoxicity in HepG2 cells, Resazurin viability assay; settings: human, HepG2 cells, HepG2 4 days CC50 (μM), incubated for 4 days, Resazurin assay
[4] = Hepatitis B virus, HepG2.2.15, 144 h
[5] = Hepatitis B virus, HepG2.117, 72 h

SMILES | EC50 (HBV [1]) [nM] | CC50 (HepG2 cells) [nM] | EC50 (HBV [2]) [nM] | EC50 (HBV [1]; [4]) [nM] | CC50 at 4 days [3] [µM] | EC50 (HBV [2]; [5]) [nM]
Cn1cc(S(=O)(=O)NC2CCCC2(F)F)cc1C(=O)Nc1ccc(F)c(Cl)c1F (single isomer, unassigned) [Compound 236b, N-(3-Chloro-2,4-difluorophenyl)-4-{[2,2-difluorocyclopentyl]sulfamoyl}-1-methyl-1H-pyrrole-2-carboxamide] | 60 | > 25000 | 50 | – | – | –
Cn1cc(S(=O)(=O)NC2CCC(F)(F)C2)cc1C(=O)Nc1cc(F)c(F)c(Cl)c1 (single isomer, unassigned) [Compound 166b, N-(3-Chloro-4,5-difluorophenyl)-4-[(3,3-difluorocyclopentyl)sulfamoyl]-1-methyl-1H-pyrrole-2-carboxamide] | 310 | 21300 | 170 | – | – | –
Cn1cc(S(=O)(=O)NC2(C(F)(F)F)CCOC2)cc1C(=O)Nc1ccc(F)c(C#N)c1 (single isomer, unassigned) [Compound 228b, N-(3-Cyano-4-fluorophenyl)-1-methyl-4-{[3-(trifluoromethyl)tetrahydrofuran-3-yl]sulfamoyl}-1H-pyrrole-2-carboxamide] | 30 | > 25000 | – | – | – | –
CC(CC(F)(F)F)NS(=O)(=O)c1cc(C(=O)Nc2cc(F)c(F)c(Cl)c2)n(C)c1 (single isomer, unassigned) [Compound 169b, N-(3-Chloro-4,5-difluorophenyl)-1-methyl-4-[(3,3,3-trifluoro-1-methylpropyl)sulfamoyl]-1H-pyrrole-2-carboxamide] | 40 | 17100 | 30 | – | – | –
CC(NS(=O)(=O)c1cc(C(=O)Nc2ccc(F)c(C#N)c2)n(C)c1)C(F)F (single isomer, unassigned) [Compound 200b, N-(3-Cyano-4-fluorophenyl)-4-{[2,2-difluoro-1-methylethyl]sulfamoyl}-1-methyl-1H-pyrrole-2-carboxamide] | 90 | > 25000 | 100 | – | – | –
CCC(C)(NS(=O)(=O)c1cc(C(=O)Nc2cc(F)c(F)c(Cl)c2)n(C)c1)C(F)(F)F (single isomer, unassigned) [Compound 165b, N-(3-chloro-4,5-difluoro-phenyl)-1-methyl-4-[[1-methyl-1-(trifluoro-methyl)propyl]sulfamoyl]pyrrole-2-carboxamide] | 120 | 4800 | 20 | – | – | –
Cc1c(S(=O)(=O)N[C@H](C)C(F)(F)F)cc(C(=O)Nc2ccc(F)c(Br)c2)n1C [Compound 141, N-(3-Bromo-4-fluorophenyl)-1,5-dimethyl-4-{[(1R)-2,2,2-trifluoro-1-methylethyl]sulfamoyl}-1H-pyrrole-2-carboxamide] | – | – | – | 40 | > 25 | 150
Cc1c(S(=O)(=O)N[C@@H](C)C(F)(F)F)cn(C)c1C(=O)Nc1ccc(F)c(F)c1 [Compound 146, N-(3,4-Difluorophenyl)-1,3-dimethyl-4-{[(1S)-2,2,2-trifluoro-1-methylethyl]sulfamoyl}-1H-pyrrole-2-carboxamide] | – | – | – | 70 | > 25 | 40
CC(C)NS(=O)(=O)c1cn(C)c(C(=O)Nc2ccc(F)c(Cl)c2F)c1F [Compound 234, N-(3-Chloro-2,4-difluorophenyl)-3-fluoro-1-methyl-4-[(1-methyl-ethyl)sulfamoyl]-1H-pyrrole-2-carboxamide] | – | – | – | 20 | > 25 | 30
